In paper PMC2360244 (British Journal of Cancer, 2007):

What was measured:
HUVECs = assay: cells; details: Homo sapiens, HUVEC, read-out: IC50, growth of HUVECs
Procedure: Control cells were treated with the combined respective vehicle.

[1] = tested on: A2780 ovarian carcinoma cells; assay: Cell-cycle analysis, propidium iodide staining and FACS; format: cell-based, human
Procedure: Human A2780 ovarian carcinoma cells were seeded at 2 × 10^6 cells per 75-cm^2 flask and, after 24 h, incubated with the indicated concentration of test compound. To analyse cell-cycle distribution, sub-confluent cells were collected, centrifuged and washed with PBS. The cell pellets were re-suspended in citrate buffer and nuclei were stained with propidium iodide (Sigma-Aldrich, Bornem, Belgium) as described previously ([Vindelov et al, 1983]). Analysis was carried out using a BD-LSR flow cytometer (BD Biosciences, Erembodegem, Belgium) equipped with an argon laser (488 nm excitation). Cell-cycle profiles were analysed using WinList 3D version 4.0 and areas under the curve were calculated using ModFit LT version 3.1 (Verity Software House Inc.).
DNA content of nuclei was evaluated using propidium iodide staining followed by FACS analysis, and the number of cells in sub-G1, G1, S and G2M phase was calculated as a percentage of control. Results are expressed as % of total cells and a representative experiment out of three is shown.

[2] = tested on: microvessel outgrowth from rat aortic rings; assay: Rat aortic ring assay (angiogenesis); format: cell-based, Sprague-Dawley rats; details: 192 h, 300 nM, 8 days, compared to controls, mean±s.e.m., read-out: inhibition of total microvessel area
Procedure: Briefly, thoracic aorta were freshly isolated from 1- to 2-month-old Sprague–Dawley rats and 1-mm-long sections (aortic rings) were embedded in fibrin gel clots in six-well plates. […] Test compounds were added at the indicated concentrations at day 0 and again together with fresh media on day 2 and day 5 of culture. The ability of experimental compounds to inhibit microvessel outgrowth was compared directly with vehicle-treated control rings. […] Microvessel area, expressed as pixels^2, was determined for each aortic ring and the per cent inhibition of microvessel area compared to control rings was calculated using the mean values for each treatment group. Statistical differences between experimental groups (five independent rings) were analysed by ANOVA and Dunnett's t-test, with a P-value of <0.05 or less considered statistically significant.
(B) Rat Aortic Ring Assays were performed as described in the Methods section.

[3] = tested on: A2780 ovarian carcinoma xenograft; assay: A2780 ovarian xenograft, tumour growth; format: in vivo, mice; details: median tumour size at end of study
Procedure: (§1) All mice used in the in vivo studies were athymic male NMRI nu/nu mice purchased from Janvier (France) and were treated according to the ethical guidelines prescribed by UKCCCR. A2780 ovarian, HCT116 colon and H460 lung carcinoma cells were injected s.c. (10^7 cells per 200 μl) into the inguinal region of Nude mice. […] Tumour size was determined using caliper measurement and tumour volume was determined by using the formula: TV=(a^2 × b)/2 (in which a represents the width and b the length).
(§2) Mice were treated orally once daily (q.d.) between day 4 and 28 (A2780) or between day 4 and 32 (H460 and HCT116). (A) A2780 ovarian tumours were measured at least twice a week throughout the study, and results are represented as the median tumour size, expressed in mm^3, of each individual group (n=10). (B) Mice were treated orally q.d. at the indicated doses. Results are represented as the treated/control values (%) of the median tumour size (n=10) at the end of the study.

[4] = tested on: H460 lung carcinoma xenograft; assay: H460 lung xenograft, tumour growth; format: in vivo, mice; details: median tumour size at end of study
Procedure: as §1, §2

[5] = tested on: acetylated H3 in A2780 ovarian xenografts; assay: H3 acetylation in A2780 xenograft tumour tissue, immunofluorescence; format: in vivo, mice; details: 40 mpk p.o. once daily, tumours harvested 4 h after dosing, day 2
Procedure: For immunofluorescent staining of AcH3, cryosections of A2780 ovarian carcinoma were fixed for 2 min in 4% neutral buffered formalin and subsequently for 10 min in ethanol (100%). After blocking with goat immunoglobulin (Jackson Immunoresearch Laboratories, Suffolk, UK) for 60 min, the sections were incubated with anti-AcH3 (Upstate, 1/5000) for 2 h and with goat anti-rabbit CY3-conjugated secondary antibody (1/500 Jackson Immunoresearch Laboratories) for 2 h. For negative controls, primary antibody was omitted. Nuclei were counterstained using Hoechst (1/2000) for 5 min and the cryosections were mounted in glycerin-gelatin. Images were taken using the Zeiss Axioplan 2 & Axiocam, and processed using Photoshop 7.0 and Image Tool Processing Kit. Representative images of each group (n=3) are shown. For TUNEL staining, cells were fixed with 4% paraformaldehyde for 5 min and then incubated for 1 h at 37°C in a solution containing 25 mM Tris, 200 mM sodium cacodylate, 1.25 mg ml^−1 BSA, 1.25 mM CoCl2, 10 mM dATP (Sigma Chemical Company), 2.5 mM fluorescein-dUTP (Amersham Pharmacia Biotech AB) and 50 U ml^−1 TdT (Roche, Vilvoorde, Belgium). Incorporated Fluorescein-dUTP was detected with a sheep antifluorescein peroxidase-conjugated antiserum (Boehringer Mannheim, 1/600, Roche, Vivoorde, Belgium). The peroxidase conjugate was visualised using amino ethylcarbazol. […]

How did the IC50 (HUVECs) turn out when `O=C(NO)c1cnc(N2CCN(S(=O)(=O)c3ccc4ccccc4c3)CC2)nc1` [R306465] was run?
The IC50 was 186 ± 23 nM.

And the “G0–G1, % of total cells” value ([1]; 0.1 μM, 24 h)?
Its value is 44.6%.

What about the “G2–M, % of total cells” value ([1]; 0.1 μM, 24 h) of the same compound?
Its value is 28.3%.

And the “S-phase, % of total cells” value ([1]; 0.1 μM, 24 h)?
The value was 27.1%.

And the “G0–G1, % of total cells” value ([1]; 0.1 μM, 48 h)?
The value was 64.4%.

And the “G2–M, % of total cells” value ([1]; 0.1 μM, 48 h)?
Its value is 17.0%.

What about the “S-phase, % of total cells” value ([1]; 0.1 μM, 48 h) of the same compound?
The value was 18.6%.

And the “G0–G1, % of total cells” value ([1]; 0.3 μM, 24 h)?
Its value is 76.5%.

And the “G2–M, % of total cells” value ([1]; 0.3 μM, 24 h)?
Its value is 7.8%.

What about the “S-phase, % of total cells” value ([1]; 0.3 μM, 24 h) of the same compound?
The value was 15.7%.

What about the “G0–G1, % of total cells” value ([1]; 0.3 μM, 48 h) of the same compound?
The value was 67.2%.

And the “G2–M, % of total cells” value ([1]; 0.3 μM, 48 h)?
The value was 14.9%.

What about the “S-phase, % of total cells” value ([1]; 0.3 μM, 48 h) of the same compound?
Its value is 17.9%.

What about the “G0–G1, % of total cells” value ([1]; 1 μM, 24 h) of the same compound?
The value was 55.4%.

And the “G2–M, % of total cells” value ([1]; 1 μM, 24 h)?
Its value is 39.2%.

And the “S-phase, % of total cells” value ([1]; 1 μM, 24 h)?
Its value is 5.4%.

And the “G0–G1, % of total cells” value ([1]; 1 μM, 48 h)?
Its value is 45.5%.

What about the “G2–M, % of total cells” value ([1]; 1 μM, 48 h) of the same compound?
The value was 44.5%.

What about the “S-phase, % of total cells” value ([1]; 1 μM, 48 h) of the same compound?
The value was 10.0%.

What about the “concentration at which decrease in S phase with parallel increase in G1 phase was observed” value ([1]; 24 h incubation) of the same compound?
Its value is 300 nM.

What about the “concentration at which increase in the sub-G1 fraction was observed” value ([1]; 24 h incubation) of the same compound?
The value was 1 µM.

And the “concentration from which increase in sub-G1 phase was observed” value ([1]; 48 h incubation)?
Its value is at least 100 nM.

And the inhibition at 0.3 µM [2]?
Its inhibition at 0.3 µM is 67 ± 7%.

And the “T/C values (%) A2780 ovarian” value ([3]; 10 mpk p.o. q.d. day 4 to 28)?
The value was 47%.

What about the “T/C values (%) A2780 ovarian” value ([3]; 20 mpk p.o. q.d. day 4 to 28) of the same compound?
Its value is 13%.

And the “T/C values (%) A2780 ovarian” value ([3]; 40 mpk p.o. q.d. day 4 to 28)?
The value was 24%.

What about the “T/C values (%) H460 lung” value ([4]; 10 mpk p.o. q.d. day 4 to 32) of the same compound?
Its value is 56%.

And the “T/C values (%) H460 lung” value ([4]; 20 mpk p.o. q.d. day 4 to 32)?
The value was 64%.

What about the “T/C values (%) H460 lung” value ([4]; 40 mpk p.o. q.d. day 4 to 32) of the same compound?
Its value is 31%.

What about the “H3 acetylation in tumour tissue” value [5] of the same compound?
Its value is “maximal and homogeneous increase in H3 acetylation”.
